Test results reported in patent US8129361B2, “Amine compound and pharmaceutical use thereof” (Mitsubishi Tanabe Pharma Corporation, priority 2007, dated 2012).

How the values were obtained:
Type in all cases: in vivo
[1] = system: heart rate in rat under anesthesia; test: Action on heart rate in rat under anesthesia (intravenous administration); settings: anesthetized male Sprague-Dawley (IGS) rats, intravenous over 30 sec, up to the dose of 0.03 mg/kg body weight, 1-15 minutes after administration
Description: Action on Heart Rate in Rat Under Anesthesia
Male Sprague-Dawley (IGS) rats were anesthetized by intraperitoneal administration of Nembutal (manufactured by Dainippon Sumitomo Pharma Co., Ltd.), and fixed at the dorsal position. Electrodes were mounted on four limbs, and the electrocardiogram was measured according to Standard Limb Lead II using an electrocardiogram amplifier (AC-601G, manufactured by NIHON KOHDEN CORPORATION). With the electrocardiographic wave as a trigger, the heart rate was measured with an instantaneous heart rate unit (AT-601G, manufactured by NIHON KOHDEN CORPORATION). The test compound was dissolved in 20% cyclodextrin (manufactured by Nihon Shokuhin Kako Co., Ltd.) and intravenously administered at a dose of 0.001-10 mg/kg body weight over 30 sec. The heart rate was measured before administration, and 1, 2, 3, 4, 5, 10 and 15 minutes after the administration.

[2] = system: peripheral blood lymphocyte number; test: Peripheral blood lymphocyte number decreasing action in rat; settings: male F344 rats, oral, 24 hr after administration, read-out: ED50 (dose necessary for reducing the lymphocyte count of the vehicle group (100%) by 50%)
[3] = system: peripheral blood lymphocyte number; test: Peripheral blood lymphocyte number decreasing action in mouse; settings: ip, male BALB/cAnNCrj mice, intraperitoneal, 24 hr after administration, read-out: ED50 (dose necessary for reducing the lymphocyte count of the vehicle group (100%) by 50%)
heart rate in rat = test: Action on heart rate in rat (telemetry, oral administration); settings: male Crl:CD(SD) rats, measured to 24 hr after administration
Description: Action on Heart Rate in Rat
Male Crl:CD(SD) rats were anesthetized by intraperitoneal administration of Nembutal (manufactured by Dainippon Sumitomo Pharma Co., Ltd.), and a pressure sensor connected to a telemetry transmitter (TL11M2-C50-PTX, manufactured by Data Sciences International) was inserted into the abdominal aorta and a transmitter was subcutaneously placed in the abdomen. The blood pressure and heart rate data were recorded by an analysis software (Dataquest A.R.T., manufactured by Data Sciences International) via a receiver (RPC-1, manufactured by Data Sciences International). After confirmation of recovery of circadian rhythm of the heart rate, the rats were subjected to the experiment. The compound of the present invention was suspended in 0.5% hydroxypropylmethylcellulose (manufactured by Shin-Etsu Chemical Co., Ltd.) and orally administered. The heart rate was measured from 72 hr before the administration to 24 hr after the administration.

[4] = up to the dose of 30 mg/kg body weight

Row | SMILES | Effect on heart rate as compared to the value before administration [1] | ED50 [2] [mg/kg] | ED50 [3] [mg/kg] | Effect on heart rate (heart rate in rat; [4]) | Effect on heart rate (heart rate in rat; up to the dose of 10 mg/kg body weight)
1 | CCC(N)(CCc1ccc(OCCCc2cccc(OC(F)(F)F)c2)c(C(F)(F)F)c1)COP(=O)(O)O (stereo not drawn) [Compound 223-2, phosphoric acid mono(2-amino-2-ethyl-4-{4-[3-(3-trifluoromethoxyphenyl)propoxy]-3-trifluoromethylphenyl}butyl)ester] | did not reduce the heart rate of the rat by 20% or more |  |  |  | 
2 | Cl.NC(CO)(CO)CCc1ccc(OCCCc2ccc(C(F)(F)F)cc2)c(C(F)(F)F)c1 [Compound 11-4, 2-amino-2-(2-{3-trifluoromethyl-4-[3-(4-trifluoromethylphenyl)propoxy]phenyl}ethyl)propane-1,3-diol hydrochloride] |  | 0.09 | 0.06 | did not reduce the heart rate | 
3 | NC(CO)(CCc1ccc(OCCCc2cccc(OC(F)(F)F)c2)c(C(F)(F)F)c1)COP(=O)(O)O (stereo not drawn) [Compound 158-2, 2-amino-2-(phosphoryloxymethyl)-4-{4-[3-(3-trifluoromethoxyphenyl)propoxy]-3-trifluoromethylphenyl}butanol] | did not reduce the heart rate of the rat by 20% or more |  |  |  | 
4 | NC(CO)(CCc1ccc(OCCCc2ccc(C(F)(F)F)c(F)c2)c(C(F)(F)F)c1)COP(=O)(O)O (stereo not drawn) [Compound 168-2, 2-amino-4-{4-[3-(3-fluoro-4-trifluoromethylphenyl)propoxy]-3-trifluoromethylphenyl}-2-(phosphoryloxymethyl)butanol] | did not reduce the heart rate of the rat by 20% or more |  |  |  | 
5 | C[C@@](N)(CCc1ccc(OCCCc2ccc(C(F)(F)F)cc2)c(C(F)(F)F)c1)COP(=O)(O)O [Compound 132-2, (R)-phosphoric acid mono(2-amino-2-methyl-4-{3-trifluoromethyl-4-[3-(4-trifluoromethylphenyl)propoxy]phenyl}butyl)ester] | did not reduce the heart rate of the rat by 20% or more |  |  |  | 
6 | CCC(N)(CCc1ccc(OCCCc2ccc(OC(F)(F)F)cc2)c(C(F)(F)F)c1)COP(=O)(O)O (stereo not drawn) [Compound 221-2, phosphoric acid mono(2-amino-2-ethyl-4-{4-[3-(4-trifluoromethoxyphenyl)propoxy]-3-trifluoromethylphenyl}butyl)ester] | did not reduce the heart rate of the rat by 20% or more |  |  |  | 
7 | CC(N)(CCc1ccc(OCCCc2ccc(Cl)c(Cl)c2)c(C(F)(F)F)c1)COP(=O)(O)O (stereo not drawn) [Compound 209-2, phosphoric acid mono(2-amino-4-{4-[3-(3,4-dichlorophenyl)propoxy]-3-trifluoromethylphenyl}-2-methylbutyl)ester] | did not reduce the heart rate of the rat by 20% or more |  |  |  | 
8 | Cl.NC(CO)(CO)CCc1ccc(OCCCc2ccc(OC(F)(F)F)cc2)c(C(F)(F)F)c1 [Compound 52-5, 2-amino-2-(2-{4-[3-(4-trifluoromethoxyphenyl)propoxy]-3-trifluoromethylphenyl}ethyl)propane-1,3-diol hydrochloride] |  | 0.05 | 0.08 | did not reduce the heart rate | 
9 | C[C@](N)(CO)CCc1ccc(OCCCc2ccc(Cl)c(Cl)c2)c(C(F)(F)F)c1.Cl [Compound 204-1, (R)-2-amino-4-{4-[3-(3,4-dichlorophenyl)propoxy]-3-trifluoromethylphenyl}-2-methylbutanol hydrochloride] |  | 0.03 | 0.005 |  | did not reduce the heart rate
10 | Cl.NC(CO)(CO)CCc1ccc(OCCCc2cccc(C(F)(F)F)c2)c(C(F)(F)F)c1 [Compound 12-4, 2-amino-2-(2-{3-trifluoromethyl-4-[3-(3-trifluoromethylphenyl)propoxy]phenyl}ethyl)propane-1,3-diol hydrochloride] |  | 0.11 | 0.04 | did not reduce the heart rate | 
11 | NC(/C=C/c1ccc(OCCCc2ccccc2F)c(C(F)(F)F)c1)(CO)COP(=O)(O)O (stereo not drawn) [compound 193-2, (E)-2-amino-4-{4-[3-(2-fluorophenyl)propoxy]-3-trifluoromethylphenyl}-2-(phosphoryloxymethyl)-3-butenol] | did not reduce the heart rate of the rat by 20% or more |  |  |  | 
12 | Cc1cccc(CCCOc2ccc(CCC(N)(CO)CO)cc2C(F)(F)F)c1.Cl [Compound 15-4, 2-amino-2-(2-{4-[3-(3-methylphenyl)propoxy]-3-trifluoromethylphenyl}ethyl)propane-1,3-diol hydrochloride] |  | 0.05 | 0.03 | did not reduce the heart rate | 
13 | Cl.NC(CO)(CO)CCc1ccc(OCCCc2ccc(Cl)c(Cl)c2)c(C(F)(F)F)c1 [Compound 38-5, 2-amino-2-(2-{4-[3-(3,4-dichlorophenyl)propoxy]-3-trifluoromethylphenyl}ethyl)propane-1,3-diol hydrochloride] |  | 0.07 | 0.07 | did not reduce the heart rate | 
14 | NC(/C=C/c1ccc(OCCCc2ccccc2)c(C(F)(F)F)c1)(CO)COP(=O)(O)O (stereo not drawn) [compound 192-2, (E)-2-amino-4-[4-(3-phenylpropoxy)-3-trifluoromethylphenyl]-2-(phosphoryloxymethyl)-3-butenol] | did not reduce the heart rate of the rat by 20% or more |  |  |  | 
15 | NC(CO)(CCc1ccc(OCCCc2ccc(OC(F)(F)F)cc2)c(C(F)(F)F)c1)COP(=O)(O)O (stereo not drawn) [Compound 153-2, 2-amino-2-(phosphoryloxymethyl)-4-{4-[3-(4-trifluoromethoxyphenyl)propoxy]-3-trifluoromethylphenyl}butanol] | did not reduce the heart rate of the rat by 20% or more |  |  |  | 
